Source: PubChem BioAssay (NCI)
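Five concentrations, 48 hours, 96-well plates. TGI: total growth inhibition.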

tested on: HOP-18 NSCLC; test: NCI tumour cell line growth inhibition, 48 h

Compound	TGI [µM]
CCOC(=O)C(N)CSC(=O)NC (stereo unspecified)	686
COC(=O)C1OC(Oc2cc(O)c3c(=O)cc(-c4ccc(O)cc4)oc3c2)C(O)C(O)C1O (stereo unspecified)	> 100

tested on: SN12C renal; test: NCI tumour cell line growth inhibition, 48 h

Compound	TGI [µM]
CCOC(=O)[C@H](CCCNC(=O)OC(C)(C)C)NCc1ccc(OC)c(OC)c1	> 100
O=c1cc(-c2ccccc2)[nH]c2cc3c(cc12)OCO3	> 100
COc1cc2c(cc1OCc1ccccc1)CNCC2	> 100
CCOC(=O)C(N)CSC(=O)NC (stereo unspecified)	213
COC(=O)C1OC(Oc2cc(O)c3c(=O)cc(-c4ccc(O)cc4)oc3c2)C(O)C(O)C1O (stereo unspecified)	> 100

tested on: MDA-N; test: NCI tumour cell line growth inhibition, 48 h

Compound	TGI [µM]
O=c1cc(-c2ccccc2)[nH]c2cc3c(cc12)OCO3	> 100
CCOC(=O)C(N)CSC(=O)NC (stereo unspecified)	116

tested on: OVCAR-4 ovarian; test: NCI tumour cell line growth inhibition, 48 h

Compound	TGI [µM]
CCOC(=O)[C@H](CCCNC(=O)OC(C)(C)C)NCc1ccc(OC)c(OC)c1	> 100
O=c1cc(-c2ccccc2)[nH]c2cc3c(cc12)OCO3	> 100
COc1cc2c(cc1OCc1ccccc1)CNCC2	> 100
CCOC(=O)C(N)CSC(=O)NC (stereo unspecified)	481
COC(=O)C1OC(Oc2cc(O)c3c(=O)cc(-c4ccc(O)cc4)oc3c2)C(O)C(O)C1O (stereo unspecified)	> 100

tested on: SR leukemia; test: NCI tumour cell line growth inhibition, 48 h

Compound	TGI [µM]
CCOC(=O)[C@H](CCCNC(=O)OC(C)(C)C)NCc1ccc(OC)c(OC)c1	> 100
O=c1cc(-c2ccccc2)[nH]c2cc3c(cc12)OCO3	67.4
CCOC(=O)C(N)CSC(=O)NC (stereo unspecified)	158

tested on: COLO 205 colon; test: NCI tumour cell line growth inhibition, 48 h

Compound	TGI [µM]
CCOC(=O)[C@H](CCCNC(=O)OC(C)(C)C)NCc1ccc(OC)c(OC)c1	> 100
O=c1cc(-c2ccccc2)[nH]c2cc3c(cc12)OCO3	65.7
COc1cc2c(cc1OCc1ccccc1)CNCC2	> 100
CCOC(=O)C(N)CSC(=O)NC (stereo unspecified)	360
COC(=O)C1OC(Oc2cc(O)c3c(=O)cc(-c4ccc(O)cc4)oc3c2)C(O)C(O)C1O (stereo unspecified)	> 100

tested on: UACC-62 melanoma; test: NCI tumour cell line growth inhibition, 48 h

Compound	TGI [µM]
CCOC(=O)[C@H](CCCNC(=O)OC(C)(C)C)NCc1ccc(OC)c(OC)c1	> 100
O=c1cc(-c2ccccc2)[nH]c2cc3c(cc12)OCO3	> 90.7
COc1cc2c(cc1OCc1ccccc1)CNCC2	> 100
CCOC(=O)C(N)CSC(=O)NC (stereo unspecified)	304
COC(=O)C1OC(Oc2cc(O)c3c(=O)cc(-c4ccc(O)cc4)oc3c2)C(O)C(O)C1O (stereo unspecified)	> 100

tested on: SW-620 colon; test: NCI tumour cell line growth inhibition, 48 h

Compound	TGI [µM]
CCOC(=O)[C@H](CCCNC(=O)OC(C)(C)C)NCc1ccc(OC)c(OC)c1	> 100
O=c1cc(-c2ccccc2)[nH]c2cc3c(cc12)OCO3	> 100
COc1cc2c(cc1OCc1ccccc1)CNCC2	> 100
CCOC(=O)C(N)CSC(=O)NC (stereo unspecified)	308
COC(=O)C1OC(Oc2cc(O)c3c(=O)cc(-c4ccc(O)cc4)oc3c2)C(O)C(O)C1O (stereo unspecified)	> 100

tested on: OVCAR-5 ovarian; test: NCI tumour cell line growth inhibition, 48 h

Compound	TGI [µM]
CCOC(=O)[C@H](CCCNC(=O)OC(C)(C)C)NCc1ccc(OC)c(OC)c1	> 100
O=c1cc(-c2ccccc2)[nH]c2cc3c(cc12)OCO3	> 100
COc1cc2c(cc1OCc1ccccc1)CNCC2	> 100
CCOC(=O)C(N)CSC(=O)NC (stereo unspecified)	689
COC(=O)C1OC(Oc2cc(O)c3c(=O)cc(-c4ccc(O)cc4)oc3c2)C(O)C(O)C1O (stereo unspecified)	> 100

tested on: TK-10 renal; test: NCI tumour cell line growth inhibition, 48 h

Compound	TGI [µM]
CCOC(=O)[C@H](CCCNC(=O)OC(C)(C)C)NCc1ccc(OC)c(OC)c1	> 100
O=c1cc(-c2ccccc2)[nH]c2cc3c(cc12)OCO3	> 94
COc1cc2c(cc1OCc1ccccc1)CNCC2	> 100
CCOC(=O)C(N)CSC(=O)NC (stereo unspecified)	566

tested on: OVCAR-3 ovarian; test: NCI tumour cell line growth inhibition, 48 h

Compound	TGI [µM]
CCOC(=O)[C@H](CCCNC(=O)OC(C)(C)C)NCc1ccc(OC)c(OC)c1	> 100
O=c1cc(-c2ccccc2)[nH]c2cc3c(cc12)OCO3	22.2
COc1cc2c(cc1OCc1ccccc1)CNCC2	> 100
CCOC(=O)C(N)CSC(=O)NC (stereo unspecified)	290
COC(=O)C1OC(Oc2cc(O)c3c(=O)cc(-c4ccc(O)cc4)oc3c2)C(O)C(O)C1O (stereo unspecified)	> 100

tested on: P388/ADR leukemia; test: NCI tumour cell line growth inhibition, 48 h

Compound	TGI [µM]
CCOC(=O)C(N)CSC(=O)NC (stereo unspecified)	104
COC(=O)C1OC(Oc2cc(O)c3c(=O)cc(-c4ccc(O)cc4)oc3c2)C(O)C(O)C1O (stereo unspecified)	> 100

tested on: HCT-116 colon; test: NCI tumour cell line growth inhibition, 48 h

Compound	TGI [µM]
CCOC(=O)[C@H](CCCNC(=O)OC(C)(C)C)NCc1ccc(OC)c(OC)c1	> 100
O=c1cc(-c2ccccc2)[nH]c2cc3c(cc12)OCO3	> 29.8
COc1cc2c(cc1OCc1ccccc1)CNCC2	> 100
CCOC(=O)C(N)CSC(=O)NC (stereo unspecified)	321
COC(=O)C1OC(Oc2cc(O)c3c(=O)cc(-c4ccc(O)cc4)oc3c2)C(O)C(O)C1O (stereo unspecified)	> 100

tested on: A549 NSCLC; test: NCI tumour cell line growth inhibition, 48 h

Compound	TGI [µM]
CCOC(=O)[C@H](CCCNC(=O)OC(C)(C)C)NCc1ccc(OC)c(OC)c1	> 100
O=c1cc(-c2ccccc2)[nH]c2cc3c(cc12)OCO3	> 100
COc1cc2c(cc1OCc1ccccc1)CNCC2	> 100
CCOC(=O)C(N)CSC(=O)NC (stereo unspecified)	836
COC(=O)C1OC(Oc2cc(O)c3c(=O)cc(-c4ccc(O)cc4)oc3c2)C(O)C(O)C1O (stereo unspecified)	> 100

tested on: DLD-1 colon; test: NCI tumour cell line growth inhibition, 48 h

Compound	TGI [µM]
CCOC(=O)[C@H](CCCNC(=O)OC(C)(C)C)NCc1ccc(OC)c(OC)c1	> 100
O=c1cc(-c2ccccc2)[nH]c2cc3c(cc12)OCO3	> 100
COc1cc2c(cc1OCc1ccccc1)CNCC2	> 100
CCOC(=O)C(N)CSC(=O)NC (stereo unspecified)	474
COC(=O)C1OC(Oc2cc(O)c3c(=O)cc(-c4ccc(O)cc4)oc3c2)C(O)C(O)C1O (stereo unspecified)	> 100

tested on: RXF 393 renal; test: NCI tumour cell line growth inhibition, 48 h

Compound	TGI [µM]
CCOC(=O)[C@H](CCCNC(=O)OC(C)(C)C)NCc1ccc(OC)c(OC)c1	> 100
O=c1cc(-c2ccccc2)[nH]c2cc3c(cc12)OCO3	17.2
COc1cc2c(cc1OCc1ccccc1)CNCC2	> 100
CCOC(=O)C(N)CSC(=O)NC (stereo unspecified)	337
COC(=O)C1OC(Oc2cc(O)c3c(=O)cc(-c4ccc(O)cc4)oc3c2)C(O)C(O)C1O (stereo unspecified)	> 100

tested on: SF-539 CNS; test: NCI tumour cell line growth inhibition, 48 h

Compound	TGI [µM]
CCOC(=O)[C@H](CCCNC(=O)OC(C)(C)C)NCc1ccc(OC)c(OC)c1	> 100
O=c1cc(-c2ccccc2)[nH]c2cc3c(cc12)OCO3	18.8
COc1cc2c(cc1OCc1ccccc1)CNCC2	> 100
CCOC(=O)C(N)CSC(=O)NC (stereo unspecified)	231
COC(=O)C1OC(Oc2cc(O)c3c(=O)cc(-c4ccc(O)cc4)oc3c2)C(O)C(O)C1O (stereo unspecified)	> 100

tested on: MALME-3M melanoma; test: NCI tumour cell line growth inhibition, 48 h

Compound	TGI [µM]
CCOC(=O)[C@H](CCCNC(=O)OC(C)(C)C)NCc1ccc(OC)c(OC)c1	> 100
O=c1cc(-c2ccccc2)[nH]c2cc3c(cc12)OCO3	> 82.9
COc1cc2c(cc1OCc1ccccc1)CNCC2	> 100
